Data: ChEMBL document CHEMBL4507315 (2021)

Tests used:
[1] = biological target: Mitogen-activated protein kinase kinase kinase 12 (Homo sapiens) (UniProt Q12852); settings: Compound concentration 100.0 nM
[2] = biological target: Mitogen-activated protein kinase kinase kinase 1 (Homo sapiens) (UniProt Q13233); settings: Compound concentration 100.0 nM
[3] = biological target: Tyrosine-protein kinase receptor TYRO3 (Homo sapiens) (UniProt Q06418); settings: Compound concentration 100.0 nM
[4] = biological target: Serine/threonine-protein kinase WNK2 (Homo sapiens) (UniProt Q9Y3S1); settings: Compound concentration 100.0 nM
[5] = biological target: RAC-alpha serine/threonine-protein kinase (Homo sapiens) (UniProt P31749); settings: Compound concentration 100.0 nM
[6] = biological target: Protein kinase C theta type (Homo sapiens) (UniProt Q04759); settings: Compound concentration 100.0 nM
[7] = biological target: Calcium/calmodulin-dependent protein kinase type II subunit alpha (Homo sapiens) (UniProt Q9UQM7); settings: Compound concentration 100.0 nM
[8] = biological target: Interferon-induced, double-stranded RNA-activated protein kinase (Homo sapiens) (UniProt P19525); settings: Compound concentration 100.0 nM
[9] = biological target: Insulin receptor-related protein (Homo sapiens) (UniProt P14616); settings: Compound concentration 100.0 nM
[10] = biological target: Phosphatidylinositol 4-phosphate 3-kinase C2 domain-containing subunit beta (Homo sapiens) (UniProt O00750); settings: Compound concentration 100.0 nM
[11] = biological target: Ribosomal protein S6 kinase alpha-6 (Homo sapiens) (UniProt Q9UK32); settings: Compound concentration 100.0 nM
[12] = biological target: Interleukin-1 receptor-associated kinase 1 (Homo sapiens) (UniProt P51617); settings: Compound concentration 100.0 nM
[13] = biological target: Cyclin-dependent kinase 4 (Homo sapiens) (UniProt P11802); settings: Compound concentration 100.0 nM
[14] = biological target: Serine/threonine-protein kinase Nek2 (Homo sapiens) (UniProt P51955); settings: Compound concentration 100.0 nM
[15] = biological target: Mitogen-activated protein kinase kinase kinase 3 (Homo sapiens) (UniProt Q99759); settings: Compound concentration 100.0 nM
[16] = system: Epidermal growth factor receptor (Homo sapiens), P00533 [L858R,T790M]; settings: Compound concentration 100.0 nM
[17] = biological target: Ephrin type-A receptor 5 (Homo sapiens) (UniProt P54756); settings: Compound concentration 100.0 nM
[18] = biological target: Serine/threonine-protein kinase Chk2 (Homo sapiens) (UniProt O96017); settings: Compound concentration 100.0 nM
[19] = biological target: Mitogen-activated protein kinase 15 (Homo sapiens) (UniProt Q8TD08); settings: Compound concentration 100.0 nM
[20] = biological target: Serine/threonine-protein kinase DCLK3 (Homo sapiens) (UniProt Q9C098); settings: Compound concentration 100.0 nM
[21] = biological target: Insulin receptor (Homo sapiens) (UniProt P06213); settings: Compound concentration 100.0 nM
[22] = biological target: Peripheral plasma membrane protein CASK (Homo sapiens) (UniProt O14936); settings: Compound concentration 100.0 nM
[23] = biological target: RAC-beta serine/threonine-protein kinase (Homo sapiens) (UniProt P31751); settings: Compound concentration 100.0 nM
[24] = biological target: Myosin light chain kinase 2, skeletal/cardiac muscle (Homo sapiens) (UniProt Q9H1R3); settings: Compound concentration 100.0 nM
[25] = biological target: Ribosomal protein S6 kinase alpha-5 (Homo sapiens) (UniProt O75582); settings: Compound concentration 100.0 nM
[26] = biological target: Angiopoietin-1 receptor (Homo sapiens) (UniProt Q02763); settings: Compound concentration 100.0 nM
[27] = biological target: Rho-associated protein kinase 1 (Homo sapiens) (UniProt Q13464); settings: Compound concentration 100.0 nM
[28] = biological target: Interleukin-1 receptor-associated kinase 3 (Homo sapiens) (UniProt Q9Y616); settings: Compound concentration 100.0 nM
[29] = biological target: Megakaryocyte-associated tyrosine-protein kinase (Homo sapiens) (UniProt P42679); settings: Compound concentration 100.0 nM
[30] = biological target: Serine/threonine-protein kinase Nek10 (Homo sapiens) (UniProt Q6ZWH5); settings: Compound concentration 100.0 nM
[31] = biological target: NT-3 growth factor receptor (Homo sapiens) (UniProt Q16288); settings: Compound concentration 100.0 nM
[32] = biological target: Serine/threonine-protein kinase Nek11 (Homo sapiens) (UniProt Q8NG66); settings: Compound concentration 100.0 nM
[33] = biological target: Dual specificity protein kinase CLK1 (Homo sapiens) (UniProt P49759); settings: Compound concentration 100.0 nM
[34] = biological target: Serine/threonine-protein kinase MRCK gamma (Homo sapiens) (UniProt Q6DT37); settings: Compound concentration 100.0 nM
[35] = biological target: Serine/threonine-protein kinase 10 (Homo sapiens) (UniProt O94804); settings: Compound concentration 100.0 nM
[36] = biological target: Calcium/calmodulin-dependent protein kinase kinase 1 (Homo sapiens) (UniProt Q8N5S9); settings: Compound concentration 100.0 nM
[37] = biological target: Tyrosine-protein kinase receptor UFO (Homo sapiens) (UniProt P30530); settings: Compound concentration 100.0 nM
[38] = biological target: Inhibitor of nuclear factor kappa-B kinase subunit epsilon (Homo sapiens) (UniProt Q14164); settings: Compound concentration 100.0 nM
[39] = biological target: Dual specificity mitogen-activated protein kinase kinase 4 (Homo sapiens) (UniProt P45985); settings: Compound concentration 100.0 nM
[40] = system: Receptor-type tyrosine-protein kinase FLT3 (Homo sapiens), P36888 [N841I]; settings: Compound concentration 100.0 nM
[41] = biological target: cGMP-dependent protein kinase 2 (Homo sapiens) (UniProt Q13237); settings: Compound concentration 100.0 nM
[42] = biological target: Serine/threonine-protein kinase B-raf (Homo sapiens) (UniProt P15056); settings: Compound concentration 100.0 nM
[43] = biological target: 5-hydroxytryptamine receptor 6 (Homo sapiens) (UniProt P50406); settings: Compound concentration 10.0 uM
[44] = biological target: RAC-gamma serine/threonine-protein kinase (Homo sapiens) (UniProt Q9Y243); settings: Compound concentration 100.0 nM
[45] = biological target: Serine/threonine-protein kinase TBK1 (Homo sapiens) (UniProt Q9UHD2); settings: Compound concentration 100.0 nM

Chain of Calcium/calmodulin-dependent protein kinase type II subunit alpha (Homo sapiens) (Q9UQM7 whole entry): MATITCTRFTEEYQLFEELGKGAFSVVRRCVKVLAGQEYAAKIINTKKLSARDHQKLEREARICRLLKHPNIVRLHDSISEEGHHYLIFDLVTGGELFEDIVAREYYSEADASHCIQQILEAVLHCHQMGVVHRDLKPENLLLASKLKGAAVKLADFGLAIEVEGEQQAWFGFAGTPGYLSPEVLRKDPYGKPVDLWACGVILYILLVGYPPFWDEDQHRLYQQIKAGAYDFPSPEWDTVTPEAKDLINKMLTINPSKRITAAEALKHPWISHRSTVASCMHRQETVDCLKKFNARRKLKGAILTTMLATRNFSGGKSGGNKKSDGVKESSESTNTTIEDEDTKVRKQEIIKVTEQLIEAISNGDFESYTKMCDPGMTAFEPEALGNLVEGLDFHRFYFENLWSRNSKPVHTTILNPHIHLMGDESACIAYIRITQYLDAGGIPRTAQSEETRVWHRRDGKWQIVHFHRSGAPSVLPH
Chain of Ribosomal protein S6 kinase alpha-6 (Homo sapiens) (Q9UK32 whole entry): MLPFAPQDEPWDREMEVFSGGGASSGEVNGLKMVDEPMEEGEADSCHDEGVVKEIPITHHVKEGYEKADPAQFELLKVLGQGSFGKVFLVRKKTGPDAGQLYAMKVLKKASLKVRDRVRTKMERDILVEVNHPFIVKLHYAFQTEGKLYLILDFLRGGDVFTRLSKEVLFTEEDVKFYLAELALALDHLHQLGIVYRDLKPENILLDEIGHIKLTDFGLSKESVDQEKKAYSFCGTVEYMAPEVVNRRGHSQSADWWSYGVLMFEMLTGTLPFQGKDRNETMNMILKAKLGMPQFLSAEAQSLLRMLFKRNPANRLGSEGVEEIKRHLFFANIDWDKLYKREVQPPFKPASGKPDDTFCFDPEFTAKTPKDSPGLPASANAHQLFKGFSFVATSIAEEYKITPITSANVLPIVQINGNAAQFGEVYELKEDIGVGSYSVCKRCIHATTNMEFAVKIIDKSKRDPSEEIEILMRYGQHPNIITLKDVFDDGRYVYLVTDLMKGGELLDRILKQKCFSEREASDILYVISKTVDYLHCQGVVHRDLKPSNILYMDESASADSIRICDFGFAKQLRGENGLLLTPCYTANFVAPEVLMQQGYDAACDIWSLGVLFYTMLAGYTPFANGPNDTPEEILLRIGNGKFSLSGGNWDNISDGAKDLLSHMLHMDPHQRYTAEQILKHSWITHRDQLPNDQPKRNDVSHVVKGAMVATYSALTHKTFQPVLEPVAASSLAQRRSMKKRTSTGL
Chain of Rho-associated protein kinase 1 (Homo sapiens) (Q13464 2-1354 limits assumed): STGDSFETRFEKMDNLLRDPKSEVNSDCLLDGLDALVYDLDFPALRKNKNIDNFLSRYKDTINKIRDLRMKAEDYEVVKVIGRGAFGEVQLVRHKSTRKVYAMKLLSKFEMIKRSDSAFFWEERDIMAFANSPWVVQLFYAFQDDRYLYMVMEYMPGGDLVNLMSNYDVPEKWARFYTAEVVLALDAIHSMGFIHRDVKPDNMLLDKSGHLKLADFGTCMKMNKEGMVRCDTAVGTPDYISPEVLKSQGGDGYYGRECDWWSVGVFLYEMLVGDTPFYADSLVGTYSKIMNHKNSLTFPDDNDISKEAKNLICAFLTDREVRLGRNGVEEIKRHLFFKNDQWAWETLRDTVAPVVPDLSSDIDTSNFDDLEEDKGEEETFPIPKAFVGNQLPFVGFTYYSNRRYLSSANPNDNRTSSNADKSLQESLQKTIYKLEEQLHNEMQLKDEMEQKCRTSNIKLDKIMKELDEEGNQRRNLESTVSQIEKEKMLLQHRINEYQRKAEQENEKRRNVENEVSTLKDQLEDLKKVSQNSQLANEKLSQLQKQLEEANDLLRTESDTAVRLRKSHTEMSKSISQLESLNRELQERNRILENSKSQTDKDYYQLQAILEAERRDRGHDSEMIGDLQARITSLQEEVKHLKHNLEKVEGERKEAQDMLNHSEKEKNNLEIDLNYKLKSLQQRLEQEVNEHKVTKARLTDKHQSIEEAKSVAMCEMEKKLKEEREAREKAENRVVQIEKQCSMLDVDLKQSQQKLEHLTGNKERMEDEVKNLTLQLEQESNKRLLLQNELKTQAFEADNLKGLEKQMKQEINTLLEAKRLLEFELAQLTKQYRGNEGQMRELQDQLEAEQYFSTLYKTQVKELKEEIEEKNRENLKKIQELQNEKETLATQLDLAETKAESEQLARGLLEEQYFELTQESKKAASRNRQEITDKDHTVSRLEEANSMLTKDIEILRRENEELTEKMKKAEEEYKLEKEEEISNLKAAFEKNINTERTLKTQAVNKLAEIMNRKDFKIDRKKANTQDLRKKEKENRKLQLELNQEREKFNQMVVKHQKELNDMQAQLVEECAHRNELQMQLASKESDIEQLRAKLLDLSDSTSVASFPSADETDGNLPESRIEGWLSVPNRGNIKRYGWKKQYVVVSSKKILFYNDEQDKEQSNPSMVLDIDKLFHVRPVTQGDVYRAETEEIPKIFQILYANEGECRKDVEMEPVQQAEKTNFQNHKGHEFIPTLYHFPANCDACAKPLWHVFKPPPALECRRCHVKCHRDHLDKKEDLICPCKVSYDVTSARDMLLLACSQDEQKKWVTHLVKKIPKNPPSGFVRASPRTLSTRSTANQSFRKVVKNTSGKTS
Chain of Serine/threonine-protein kinase Nek10 (Homo sapiens) (Q6ZWH5 whole entry): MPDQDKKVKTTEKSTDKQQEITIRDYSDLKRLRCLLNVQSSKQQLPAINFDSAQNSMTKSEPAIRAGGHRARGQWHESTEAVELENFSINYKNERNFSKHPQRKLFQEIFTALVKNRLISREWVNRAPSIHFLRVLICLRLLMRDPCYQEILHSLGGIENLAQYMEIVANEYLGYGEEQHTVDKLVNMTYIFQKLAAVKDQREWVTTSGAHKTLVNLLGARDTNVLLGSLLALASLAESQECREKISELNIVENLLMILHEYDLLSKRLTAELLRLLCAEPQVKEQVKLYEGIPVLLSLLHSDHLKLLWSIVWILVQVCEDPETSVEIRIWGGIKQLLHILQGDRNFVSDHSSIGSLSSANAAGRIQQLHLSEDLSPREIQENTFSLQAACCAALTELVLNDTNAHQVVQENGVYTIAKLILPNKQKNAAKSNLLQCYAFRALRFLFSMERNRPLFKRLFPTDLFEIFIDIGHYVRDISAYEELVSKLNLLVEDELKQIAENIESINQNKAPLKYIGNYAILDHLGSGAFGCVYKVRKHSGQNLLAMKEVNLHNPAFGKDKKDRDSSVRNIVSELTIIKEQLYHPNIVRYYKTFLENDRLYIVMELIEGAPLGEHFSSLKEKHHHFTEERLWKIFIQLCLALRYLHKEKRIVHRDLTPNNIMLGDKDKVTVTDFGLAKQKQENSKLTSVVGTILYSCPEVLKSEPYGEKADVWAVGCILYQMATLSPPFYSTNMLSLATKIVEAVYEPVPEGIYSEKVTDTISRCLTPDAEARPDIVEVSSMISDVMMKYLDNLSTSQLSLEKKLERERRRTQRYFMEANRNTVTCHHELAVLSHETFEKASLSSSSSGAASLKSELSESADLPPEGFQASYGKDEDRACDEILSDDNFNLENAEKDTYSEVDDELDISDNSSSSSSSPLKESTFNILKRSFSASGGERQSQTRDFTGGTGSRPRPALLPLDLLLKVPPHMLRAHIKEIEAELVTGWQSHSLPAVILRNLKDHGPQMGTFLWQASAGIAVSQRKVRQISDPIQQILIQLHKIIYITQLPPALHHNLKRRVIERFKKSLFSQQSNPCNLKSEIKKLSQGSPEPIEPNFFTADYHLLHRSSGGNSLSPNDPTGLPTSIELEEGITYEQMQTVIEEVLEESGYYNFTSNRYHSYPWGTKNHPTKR
Chain of Megakaryocyte-associated tyrosine-protein kinase (Homo sapiens) (P42679 whole entry): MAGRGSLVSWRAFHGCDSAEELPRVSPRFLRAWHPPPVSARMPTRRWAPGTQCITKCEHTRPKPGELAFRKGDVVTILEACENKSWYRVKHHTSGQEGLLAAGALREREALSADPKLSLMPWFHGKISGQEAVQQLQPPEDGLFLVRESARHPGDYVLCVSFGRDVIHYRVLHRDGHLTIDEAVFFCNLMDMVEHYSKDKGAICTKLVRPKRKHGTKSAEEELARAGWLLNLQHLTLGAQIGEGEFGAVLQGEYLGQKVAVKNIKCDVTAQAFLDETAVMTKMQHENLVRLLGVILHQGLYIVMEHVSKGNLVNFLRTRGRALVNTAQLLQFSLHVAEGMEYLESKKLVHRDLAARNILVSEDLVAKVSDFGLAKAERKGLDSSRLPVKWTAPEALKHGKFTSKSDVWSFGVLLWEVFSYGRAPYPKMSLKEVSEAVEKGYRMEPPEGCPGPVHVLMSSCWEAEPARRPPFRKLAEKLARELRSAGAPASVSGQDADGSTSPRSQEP
Chain of RAC-gamma serine/threonine-protein kinase (Homo sapiens) (Q9Y243 whole entry): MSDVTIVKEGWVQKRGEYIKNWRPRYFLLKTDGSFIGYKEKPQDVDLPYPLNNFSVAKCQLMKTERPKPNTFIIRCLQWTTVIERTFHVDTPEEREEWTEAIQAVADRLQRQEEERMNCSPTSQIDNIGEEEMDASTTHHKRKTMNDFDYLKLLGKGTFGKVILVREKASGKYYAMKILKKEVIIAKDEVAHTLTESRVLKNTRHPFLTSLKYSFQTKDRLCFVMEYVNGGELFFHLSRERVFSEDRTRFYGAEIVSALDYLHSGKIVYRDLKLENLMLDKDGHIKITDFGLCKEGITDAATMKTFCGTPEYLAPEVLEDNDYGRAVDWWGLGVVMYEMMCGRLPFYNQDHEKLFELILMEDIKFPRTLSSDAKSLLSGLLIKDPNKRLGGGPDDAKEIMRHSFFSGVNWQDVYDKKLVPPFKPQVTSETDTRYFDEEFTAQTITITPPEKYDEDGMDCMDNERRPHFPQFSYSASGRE
Chain of Cyclin-dependent kinase 4 (Homo sapiens) (P11802 whole entry): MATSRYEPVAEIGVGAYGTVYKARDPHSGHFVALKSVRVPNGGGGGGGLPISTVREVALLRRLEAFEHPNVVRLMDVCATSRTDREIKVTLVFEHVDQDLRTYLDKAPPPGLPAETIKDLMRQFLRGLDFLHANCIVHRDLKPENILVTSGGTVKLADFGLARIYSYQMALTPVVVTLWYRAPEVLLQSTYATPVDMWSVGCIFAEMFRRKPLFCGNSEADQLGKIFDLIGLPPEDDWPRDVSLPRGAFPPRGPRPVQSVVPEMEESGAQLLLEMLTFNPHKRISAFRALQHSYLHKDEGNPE

Nc1c(C(=O)NCc2ccc(C(=O)NCCCC3CCCCC3)cc2)cnn1-c1ccccc1 [SR-318]
inactive: residual activity [1] 100% | residual activity [2] 96% | residual activity [3] 100% | residual activity [4] 100% | residual activity [5] 100% | residual activity [6] 100% | residual activity [7] 100% | residual activity [8] 54% | residual activity [9] 100% | residual activity [10] 99% | residual activity [11] 61% | residual activity [12] 86% | residual activity [13] 100% | residual activity [14] 100% | residual activity [15] 100% | residual activity [16] 96% | residual activity [17] 100% | residual activity [18] 88% | residual activity [19] 100% | residual activity [20] 100% | residual activity [21] 100% | residual activity [22] 78% | residual activity [23] 96% | residual activity [24] 100% | residual activity [25] 94% | residual activity [26] 100% | residual activity [27] 100% | residual activity [28] 94% | residual activity [29] 100% | residual activity [30] 100% | residual activity [31] 97% | residual activity [32] 94% | residual activity [33] 100% | residual activity [34] 100% | residual activity [35] 100% | residual activity [36] 100% | residual activity [37] 87% | residual activity [38] 100% | residual activity [39] 100% | residual activity [40] 95% | residual activity [41] 96% | residual activity [42] 90% | inhibition [43] 26.8% | residual activity [44] 78% | residual activity [45] 96%

O=C(NCCCC1CCCCC1)c1ccc(CNC(=O)c2cnn(-c3ccccc3)c2C(F)(F)F)cc1 [SR-321]
inactive: residual activity [1] 100% | residual activity [2] 65% | residual activity [3] 100% | residual activity [4] 100% | residual activity [5] 100% | residual activity [6] 100% | residual activity [7] 100% | residual activity [8] 64% | residual activity [9] 100% | residual activity [10] 86% | residual activity [11] 92% | residual activity [12] 100% | residual activity [13] 96% | residual activity [14] 100% | residual activity [15] 100% | residual activity [16] 95% | residual activity [17] 92% | residual activity [18] 100% | residual activity [19] 100% | residual activity [20] 100% | residual activity [21] 100% | residual activity [22] 100% | residual activity [23] 100% | residual activity [24] 100% | residual activity [25] 100% | residual activity [26] 100% | residual activity [27] 100% | residual activity [28] 100% | residual activity [29] 100% | residual activity [30] 100% | residual activity [31] 100% | residual activity [32] 100% | residual activity [33] 96% | residual activity [34] 99% | residual activity [35] 100% | residual activity [36] 100% | residual activity [37] 95% | residual activity [38] 78% | residual activity [39] 100% | residual activity [40] 88% | residual activity [41] 89% | residual activity [42] 100% | inhibition [43] -0.05% | residual activity [44] 97% | residual activity [45] 100%
